Measurements: US20070149580A1, “USE OF PEROXISOME PROLIFERATOR ACTIVATED RECEPTOR DELTA AGONISTS FOR THE TREATMENT OF MS AND OTHER DEMYELINATING DISEASES” (AVENTIS PHARMACEUTICALS INC., priority 2004, published 2007)

Columns and labels:
human PPAR delta = target: T1, human PPAR delta (Homo sapiens, UniProt Q03181); assay: cell-based
T1 sequence (Q03181 139-441): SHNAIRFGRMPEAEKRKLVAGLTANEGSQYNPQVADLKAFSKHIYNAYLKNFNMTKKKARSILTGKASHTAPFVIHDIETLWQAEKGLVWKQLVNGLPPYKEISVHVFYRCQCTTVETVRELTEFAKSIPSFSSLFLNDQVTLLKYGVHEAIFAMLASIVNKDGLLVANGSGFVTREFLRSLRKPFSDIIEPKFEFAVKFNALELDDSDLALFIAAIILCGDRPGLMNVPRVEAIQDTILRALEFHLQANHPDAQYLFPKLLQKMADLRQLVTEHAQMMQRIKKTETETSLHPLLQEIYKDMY

Human PPAR gamma = target: T2, Human PPAR gamma (Homo sapiens, UniProt P37231); assay: Cellular PPAR gamma luciferase reporter assay; format: cell-based
T2 construct: expressed in transfected cells
T2 sequence (P37231 1-505): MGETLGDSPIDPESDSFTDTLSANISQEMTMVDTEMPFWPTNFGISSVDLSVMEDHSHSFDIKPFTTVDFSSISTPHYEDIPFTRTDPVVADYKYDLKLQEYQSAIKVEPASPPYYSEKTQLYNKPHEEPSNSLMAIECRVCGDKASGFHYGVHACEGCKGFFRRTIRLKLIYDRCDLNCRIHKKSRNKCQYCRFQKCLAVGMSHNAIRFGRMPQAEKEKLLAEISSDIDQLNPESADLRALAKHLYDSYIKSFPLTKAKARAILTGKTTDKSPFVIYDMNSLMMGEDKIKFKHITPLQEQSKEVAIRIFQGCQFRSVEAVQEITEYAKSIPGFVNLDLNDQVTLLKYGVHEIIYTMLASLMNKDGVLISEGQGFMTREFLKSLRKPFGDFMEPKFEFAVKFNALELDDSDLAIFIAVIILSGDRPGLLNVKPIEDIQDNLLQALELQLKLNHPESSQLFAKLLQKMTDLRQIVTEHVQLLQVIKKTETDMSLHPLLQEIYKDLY
Method: Cell Based PPAR Gamma Assay Protocol
To perform cell based assays a luciferase assay is performed in 96 well plates as follows:
Dilution steps and addition of diluted compounds is done using a Beckman Biomek 2000 or Beckman FX robot.
• Aspirate medium from cells • Freeze plates at −20° C. (optional) • Thaw plates for 30 min (if necessary) • Add 50 μl Bright-Glo-Luciferase Assay Reagent (Promega, Cat. No. E2650) • Incubate for 10 min in the dark • Measure luminescence 2 sec per well (Wallac Microbeta) Data Analysis: […]

CCCc1c(OCCCOc2ccc(OCC(=O)O)cc2)ccc(C(C)=O)c1O [Compound 2]
EC50 (human PPAR delta): 39 nM
EC50 (Human PPAR gamma): 1100 nM
